Source: patent publication US8257478B2, “Use of marine fungus originated compounds as antifouling agents” (The Hong Kong University of Science and Technology, priority 2004, dated 2012)
In brackets after ≈: the same amount, converted by molar mass.

Tests used:
Micrococcus luteus = assay: agar disc diffusion assay, inhibition zone; assay type: cell-based; details: 50 μg/disc, 30° C., 24 h, read-out: Inhibition Zone Width
Experimental: (§1) Antibacterial activity was tested against bacteria using an agar disc diffusion assay method. Sterile paper discs (6 mm i.d.) impregnated with the substance under test at a concentration of 50 μg disc^−1 were applied onto the surface of an agar plate (plastic Petri dish) inoculated with one strain with sterile forceps and gently pressed down to ensure good contact with the surface. Blank discs treated with the same volume of DMSO were added. A control disc, containing streptomycin was used. After the application of discs, the plates were incubated at 30° C. for 24 h, and then the size of the inhibition zone was measured.
as §1, with “using” for “using an”, “assay.” for “assay method.”, “disc” for “disc,”, “h. The” for “h, and then the”, “measured. The results are presented in Table 8 and Table 9 for Cyclo (D)-Pro-(D)-Phe and b3-methyl-N-(2-phenylethyl)butanamide, respectively.” for “measured.”

[1] = test system: Staphylococcus haemolyticus; assay: agar disc diffusion assay, inhibition zone; assay type: cell-based; details: 50 μg/disc, 30° C., 24 h, read-out: Inhibition Zone Width
Experimental: as §1
as §1, with “using” for “using an”, “assay.” for “assay method.”, “disc” for “disc,”, “h. The” for “h, and then the”, “measured. The results are presented in Table 8 and Table 9 for Cyclo (D)-Pro-(D)-Phe and b3-methyl-N-(2-phenylethyl)butanamide, respectively.” for “measured.”

Vibrio sp. (NAP-4) = assay: agar disc diffusion assay, inhibition zone; assay type: cell-based; details: 50 μg/disc, 30° C., 24 h, read-out: Inhibition Zone Width
Experimental: as §1
as §1, with “using” for “using an”, “assay.” for “assay method.”, “disc” for “disc,”, “h. The” for “h, and then the”, “measured. The results are presented in Table 8 and Table 9 for Cyclo (D)-Pro-(D)-Phe and b3-methyl-N-(2-phenylethyl)butanamide, respectively.” for “measured.”

Vibrio harveyi = assay: agar disc diffusion assay, inhibition zone; assay type: cell-based; details: 50 μg/disc, 30° C., 24 h, read-out: Inhibition Zone Width
Experimental: as §1
as §1, with “using” for “using an”, “assay.” for “assay method.”, “disc” for “disc,”, “h. The” for “h, and then the”, “measured. The results are presented in Table 8 and Table 9 for Cyclo (D)-Pro-(D)-Phe and b3-methyl-N-(2-phenylethyl)butanamide, respectively.” for “measured.”

[2] = test system: Pseudoalteromonas piscida; assay: agar disc diffusion assay, inhibition zone; assay type: cell-based; details: 50 μg/disc, 30° C., 24 h, read-out: Inhibition Zone Width
Experimental: as §1
as §1, with “using” for “using an”, “assay.” for “assay method.”, “disc” for “disc,”, “h. The” for “h, and then the”, “measured. The results are presented in Table 8 and Table 9 for Cyclo (D)-Pro-(D)-Phe and b3-methyl-N-(2-phenylethyl)butanamide, respectively.” for “measured.”

Pseudoalteromonas sp. = assay: agar disc diffusion assay, inhibition zone; assay type: cell-based; details: 50 μg/disc, 30° C., 24 h, read-out: Inhibition Zone Width
Experimental: as §1
as §1, with “using” for “using an”, “assay.” for “assay method.”, “disc” for “disc,”, “h. The” for “h, and then the”, “measured. The results are presented in Table 8 and Table 9 for Cyclo (D)-Pro-(D)-Phe and b3-methyl-N-(2-phenylethyl)butanamide, respectively.” for “measured.”

Vibrio fluvialis = assay: agar disc diffusion assay, inhibition zone; assay type: cell-based; details: 50 μg/disc, 30° C., 24 h, read-out: Inhibition Zone Width
Experimental: as §1
as §1, with “using” for “using an”, “assay.” for “assay method.”, “disc” for “disc,”, “h. The” for “h, and then the”, “measured. The results are presented in Table 8 and Table 9 for Cyclo (D)-Pro-(D)-Phe and b3-methyl-N-(2-phenylethyl)butanamide, respectively.” for “measured.”

Shewanella algae = assay: agar disc diffusion assay, inhibition zone; assay type: cell-based; details: 50 μg/disc, 30° C., 24 h, read-out: Inhibition Zone Width
Experimental: as §1
as §1, with “using” for “using an”, “assay.” for “assay method.”, “disc” for “disc,”, “h. The” for “h, and then the”, “measured. The results are presented in Table 8 and Table 9 for Cyclo (D)-Pro-(D)-Phe and b3-methyl-N-(2-phenylethyl)butanamide, respectively.” for “measured.”

Moraxella phenylpyruvica = assay: agar disc diffusion assay, inhibition zone; assay type: cell-based; details: Psychrobacter phenylpyruvicus; 50 μg/disc, 30° C., 24 h; read-out: Inhibition Zone Width
Experimental: as §1
as §1, with “using” for “using an”, “assay.” for “assay method.”, “disc” for “disc,”, “h. The” for “h, and then the”, “measured. The results are presented in Table 8 and Table 9 for Cyclo (D)-Pro-(D)-Phe and b3-methyl-N-(2-phenylethyl)butanamide, respectively.” for “measured.”

in vivo = details: Balanus amphitrite (barnacle) larvae, in vivo
Experimental: (§2) The larval bioassay was conducted according to Rittschof et al. (1994), which is incorporated by reference herein in its entirety.
(§3) Toxicity of cyclo (D)-Pro-(D)-Phe was determined using 24-well polystyrene plates. Pure compound was dissolved in DMSO and added to autoclaved FSW to form different concentrations. Competent Balanus amphitrites larvae (10±2 individuals) were added to each well with 1 ml testing solution in 5 replicates. The wells containing FSW served as the control. The 24-well plates were incubated at 30° C. for 24 h. The percent mortality was determined by counting the number of dead larvae under a dissecting microscope.
(§4) The assay was conducted according to Rittschof et al. (1994). Data plotted are means+SD of five replicates.

[3] = test system: Balanus amphitrite larvae; assay: in vivo; details: Balanus amphitrite, in vivo, 24 h
Experimental: as §2, §3, §4

Ruegeria sp. = assay: agar disc diffusion assay, inhibition zone; assay type: cell-based; details: 50 μg/disc, 30° C., 24 h; read-out: Inhibition Zone Width
Experimental: as §1

Staphylococcus aureus = assay: agar disc diffusion assay, inhibition zone; assay type: cell-based; details: 50 μg/disc, 30° C., 24 h, read-out: Inhibition Zone Width
Experimental: as §1

[4] = test system: barnacle Balanus amphitrite larvae; assay: anti-larval settlement bioassay in 24-well plates; assay type: in vivo; details: for EC50: Amphibalanus amphitrite, Balanus amphitrite larvae, read-out: EC50 (anti-larval settlement)
Experimental: Anti-larval settlement activity of 3-chloro-2,5-dihydroxy benzyl alcohol (compound 1) was conducted using 24-well polystyrene plates. Pure compound was dissolved in DMSO and added to autoclaved FSW at different concentrations. Competent Balanus amphitrites larvae (10±2 individuals) were added to each well with 1 ml testing solution in 5 replicates, and wells containing FSW (filtered seawater) served as control. The 24-well plates were incubated at 30° C. for 24 h. The percent settlement was determined by counting the number of settled larvae under a dissecting microscope. In all bioassays, FSW served as the control. Statistical calculations were performed with the SPSS (Statistical Package for the Social Sciences) software package, Version 11.
as §2, §4
For determining anti-larval settlement activity, adult Balanus amphitrile (Darwin) were collected from the intertidal zone in Hong Kong (22°19′N, 114°16′E). Nauplii obtained from several adults were mass-reared to cyprid stage at a density of 2 larvae ml^−1 in 0.22-μm-filtered seawater with 30 ppt salinity (FSW) using Chaetoceros gracilis Schutt as food and a rearing temperature of 28° C. Newly transformed cyprids were used for the experiment.
Anti-larval settlement activity of succinic acid against B. amphitrite was determined using 24-well polystyrene plates. Pure compound was dissolved in autoclaved FSW ranged from 60-140 μg ml^−1 for B. amphitrite. Competent larvae (15±2 individuals) were added to each well with 1 ml testing solution in 5 replicates, and wells containing FSW served as the control. The 24-well plates were incubated at 30° C. for 24 h. The percent larval settlement was determined by counting the number of settled individuals under a dissecting microscope and expressed as a proportion of the total number of larvae in the well.

[5] = solubility in organic solvents; assay type: physicochemical; details: at 25° C. in methanol, ethanol, propanol, butanol, ethyl acetate, acetone and acetonitrile
Loktanella hongkongensis = assay: agar disc diffusion assay, inhibition zone; assay type: cell-based; details: Limimaricola hongkongensis; 50 μg/disc, 30° C., 24 h; read-out: Inhibition Zone Width
Experimental: as §1, with “using” for “using an”, “assay.” for “assay method.”, “disc” for “disc,”, “h. The” for “h, and then the”, “measured. The results are presented in Table 8 and Table 9 for Cyclo (D)-Pro-(D)-Phe and b3-methyl-N-(2-phenylethyl)butanamide, respectively.” for “measured.”

Vibrio alginolyticus = assay: agar disc diffusion assay, inhibition zone; assay type: cell-based; details: 50 μg/disc, 30° C., 24 h, read-out: Inhibition Zone Width
Experimental: as §1, with “using” for “using an”, “assay.” for “assay method.”, “disc” for “disc,”, “h. The” for “h, and then the”, “measured. The results are presented in Table 8 and Table 9 for Cyclo (D)-Pro-(D)-Phe and b3-methyl-N-(2-phenylethyl)butanamide, respectively.” for “measured.”

Rhodovulum sp. = assay: agar disc diffusion assay, inhibition zone; assay type: cell-based; details: 50 μg/disc, 30° C., 24 h; read-out: Inhibition Zone Width
Experimental: as §1, with “using” for “using an”, “assay.” for “assay method.”, “disc” for “disc,”, “h. The” for “h, and then the”, “measured. The results are presented in Table 8 and Table 9 for Cyclo (D)-Pro-(D)-Phe and b3-methyl-N-(2-phenylethyl)butanamide, respectively.” for “measured.”

Vibrio halioticoli = assay: agar disc diffusion assay, inhibition zone; assay type: cell-based; details: 50 μg/disc, 30° C., 24 h, read-out: Inhibition Zone Width
Experimental: as §1, with “using” for “using an”, “assay.” for “assay method.”, “disc” for “disc,”, “h. The” for “h, and then the”, “measured. The results are presented in Table 8 and Table 9 for Cyclo (D)-Pro-(D)-Phe and b3-methyl-N-(2-phenylethyl)butanamide, respectively.” for “measured.”

Vibrio furnissii = assay: agar disc diffusion assay, inhibition zone; assay type: cell-based; details: 50 μg/disc, 30° C., 24 h, read-out: Inhibition Zone Width
Experimental: as §1, with “using” for “using an”, “assay.” for “assay method.”, “disc” for “disc,”, “h. The” for “h, and then the”, “measured. The results are presented in Table 8 and Table 9 for Cyclo (D)-Pro-(D)-Phe and b3-methyl-N-(2-phenylethyl)butanamide, respectively.” for “measured.”

Vibrio vulnificus = assay: agar disc diffusion assay, inhibition zone; assay type: cell-based; details: 50 μg/disc, 30° C., 24 h, read-out: Inhibition Zone Width
Experimental: as §1, with “using” for “using an”, “assay.” for “assay method.”, “disc” for “disc,”, “h. The” for “h, and then the”, “measured. The results are presented in Table 8 and Table 9 for Cyclo (D)-Pro-(D)-Phe and b3-methyl-N-(2-phenylethyl)butanamide, respectively.” for “measured.”

Compound	zone of inhibition at 50 µg/disc (Micrococcus luteus)	zone of inhibition at 50 µg/disc [1]	zone of inhibition at 50 µg/disc (Vibrio sp. (NAP-4))	zone of inhibition at 50 µg/disc (Vibrio harveyi)	zone of inhibition at 50 µg/disc [2]	zone of inhibition at 50 µg/disc (Pseudoalteromonas sp.)	zone of inhibition at 50 µg/disc (Vibrio fluvialis)	zone of inhibition at 50 µg/disc (Shewanella algae)	zone of inhibition at 50 µg/disc (Moraxella phenylpyruvica)	LC50 at 24 h (in vivo)	therapeutic ratio LC50/EC50 [3]	EC50 [4]	solubility [5]	further results
OCc1cc(O)cc(Cl)c1O [Compound 1, 3-chloro-2,5-dihydroxy benzyl alcohol]	6 mm	6 mm	4 mm	3.5 mm	5 mm	5.5 mm	5.5 mm	4.5 mm	5.5 mm	267 mg/L (≈ 1530 µM)	76.2	3.5 mg/L (≈ 20 µM)	soluble	zone of inhibition at 50 µg/disc (Ruegeria sp.): 3.5 mm; zone of inhibition at 50 µg/disc (Staphylococcus aureus): 5.5 mm; concentration at which compound started showing anti-settlement effects ([4]; as low as): 0.1 µg/mL; barnacle larval settlement ([4]; at 5 μg ml^−1, 24 h, 60% in the control): about 10%
O=C1NC(Cc2ccccc2)C(=O)N2CCCC12 (stereo not drawn) [Compound 2, cyclo-(Pro-Phe)]	0.5 mm	0.8 ± 0.3 mm	1.3 ± 0.6 mm	0.5 mm	0 mm	1.7 ± 0.6 mm	1.2 ± 0.7 mm	0 mm	0 mm	115 mg/L (≈ 470 µM)	1.70	67.3 mg/L (≈ 275 µM)	soluble	zone of inhibition at 50 µg/disc (Loktanella hongkongensis): 1.3 ± 0.6 mm; zone of inhibition at 50 µg/disc (Vibrio alginolyticus): 0 mm; zone of inhibition at 50 µg/disc (Rhodovulum sp.): 0 mm; zone of inhibition at 50 µg/disc (Vibrio halioticoli): 0 mm; zone of inhibition at 50 µg/disc (Vibrio furnissii): 0 mm; zone of inhibition at 50 µg/disc (Vibrio vulnificus): 1 ± 0.1 mm
